Experimental data as given in patent publication US11578013B2, “Nitrification inhibitors” (Lincoln University, priority 2020, dated 2023).
Where a name gives a salt, the structure may show the parent alone.

Columns and labels:
[1] = test system: nitrification in the soil; assay: Laboratory soil incubation, Templeton sandy loam with synthetic cow urine, nitrate-N; conditions: for nitrate-N concentration in the soil compared with urine alone or urine+DMSO / reducing the nitrification rate compared with DCD: day 30; for % reduction by NI (nitrate-N): vs urine alone, 30 days; for reducing the nitrification rate compared with DCD: compound at 2 kg/ha vs DCD at 10 kg/ha; for Nitrate-N: 30 days of incubation
Procedure: A Templeton sandy loam was used in this experiment. 500 g of soil (dry weight basis) was packed into a pottle. 50 mL of synthetic cow urine with an N concentration of 7 g N/L (comprising about 87% urea-N and 13% glycine-N) was applied to the soil (equivalent to 700 kg N/ha on weight basis, assuming bulk density of 1 g/cm^3 in the top 10 cm of soil). The 700 kg N/ha application was used to simulate the urine-N application rate under a typical dairy cow urine patch in a grazed pasture.
Control treatments also added to soil were: • urine alone (50 mL); • DMSO (equivalent to 0.9 mL/500 g soil)+urine (50 mL) to determine the effect of DMSO on nitrification rate; • water alone (50 mL) (simulating areas of the soil where no urine was deposited).
Pottles were covered with lids with breathing holes to allow for gas exchange during incubation. Pottles were incubated at 12° C. Soil moisture content was maintained at field capacity by adjusting on weight basis twice a week.
Soil samples were collected and were then thoroughly mixed and subsamples were extracted in a potassium chloride solution and analysed for mineral-N. Soil moisture content was also determined. Samples were taken at 30 days after the start of incubation. […]

[2] = test system: N2O emissions in the soil; assay: Field study of nitrous oxide emissions, static gas chamber method, urine-treated pasture soil; conditions: for nitrous oxide reductions compared with DCD: sprayed onto urine-treated pasture soil
Procedure: (§1) This study was conducted on the Lincoln University Research Dairy Farm, and the soil was a Templeton sandy loam with established perennial ryegrass (Lolium perenne) and white clover (Trifolium repens.) pasture. Metal rings (500 mm diameter and 200 mm height) were inserted into the ground. A water trough sitting on top of the metal rings allowed the placement of static chambers sitting on top of the water trough to provide a gas-tight seal to allow N2O gas sampling.
Synthetic urine with a nitrogen concentration of 7 g N/L was applied to the soil plots confined within the metal rings at the equivalent rate of 700 kg N/ha. […] The plots were irrigated with irrigation water in accordance with local dairy farming practice.
(§2) The gas chamber (500 mm diameter and 120 mm height) was constructed of a metal cylinder insulated with 2.5 cm thick polystyrene foam to avoid heating of the atmosphere in the chamber during sampling. During periods of N2O measurement, the edge of the chamber was placed inside the small water trough which was mounted around the top of each metal ring for gas sampling. At each sampling time, the chamber was placed on top of the soil ring for a total of 40 minutes, and 3 samples, 20 minutes apart, were taken using a syringe through a rubber septum on top of the gas chamber. Samples were taken twice weekly. Each sampling was carried out during the middle of the day between 12:00 h to 14:00 h (Di et al., 2007). The N2O concentration in the samples was analysed using a gas chromatograph (SRI8610C with an Electron Capture Detector (ECD) (SRI Instruments, USA) linked to a Gilson 222XL autosampler (Gilson, France)
as §1, with “To determine the effect of treating the soil with 2-ethynyl-5-methoxypyridine on nitrous oxide emissions under field soil conditions, a field study was conducted using the static gas chamber method. This” for “This”
Synthetic urine with a nitrogen concentration of 7 g N/L was applied to the soil plots confined within the metal rings at the equivalent rate of 700 kg N/ha. 196.25 mg or 39.2 mg of 2-ethynyl-5-methoxypyridine were dissolved in 2 mL DMSO, mixed with 1000 mL of water, and then sprayed on to the mini-plots at the rates of 196.25 mg/plot and 39.2 mg/plot, equivalent to 10 kg/ha and 2 kg/ha, respectively. The plots were irrigated with irrigation water in accordance with local dairy farming practice.
as §2, with “France).” for “France)”
To determine the effect of treating the soil with 3-ethynylpyridine 1-oxide on nitrous oxide emissions under field soil conditions, a field study was conducted using the static gas chamber method. […]

nitrification = assay: Table 1 summary: compounds found to work or not work as nitrification inhibitors, Inhib(%); design: concentration or dose not given beside the values; conditions: test and rate not given
Procedure: The phenotypic screening involved assessing the nitrification inhibition potency of the selected 5000 compounds against a key ammonia oxidizing bacterium responsible for ammonia oxidation in the soil, Nitrosomonas europaea, in 96-well microtiter plates. N. europaea cells were grown in the presence of an ammonium source, and the potential of putative nitrification inhibitors to inhibit the production of nitrite (NO2) was measured relative to untreated cells.
A summary of selected compounds initially found to either work or not work as nitrification inhibitors is detailed in Table 1 below.

Row | Structure (SMILES) | nitrate-N concentration in the soil compared with urine alone or urine+DMSO ([1]; 0.5 kg/ha) | % reduction by NI (nitrate-N) ([1]; 0.5 kg/ha) [%] | nitrate-N concentration in the soil compared with urine alone or urine+DMSO ([1]; 1 kg/ha) | % reduction by NI (nitrate-N) ([1]; 1 kg/ha) [%] | nitrate-N concentration in the soil compared with urine alone or urine+DMSO ([1]; 2 kg/ha) | % reduction by NI (nitrate-N) ([1]; 2 kg/ha) [%] | reducing the nitrification rate compared with DCD [1] | Nitrate-N ([1]; urine + inhibitor at 0.5 kg/ha) [mg N/kg soil] | Nitrate-N ([1]; urine + inhibitor at 1 kg/ha) [mg N/kg soil] | Nitrate-N ([1]; urine + inhibitor at 2 kg/ha) [mg N/kg soil] | nitrous oxide reductions compared with DCD [2] | N2O emissions ([2]; urine + inhibitor at 2 kg/ha) [kg N2O—N/ha] | N2O emissions ([2]; urine + inhibitor at 10 kg/ha) [kg N2O—N/ha] | Inhib(%) (nitrification)
1 | C#Cc1ccc(OC)cn1 [2-ethynyl-5-methoxypyridine] | lower nitrate-N concentrations | 93 | lower nitrate-N concentrations | 97 | significantly lower nitrate-N concentrations | 78 | more effective than DCD | 28.6 | 13.8 | 100 | greater than that by DCD | 2 | 2 | 100
2 | C#Cc1cnccn1 [2-ethynylpyrazine] |  |  |  |  |  |  | more effective than DCD |  |  |  |  |  |  | 
3 | C#Cc1cncnc1 [3-Ethynyl 1,5 Diazine, 5-Ethynylpyrimidine] |  | 70 |  | 97 |  | 84 | more effective than DCD | 118.1 | 13.3 | 31.6 | greater than that by DCD | 0.89 | 0.92 | 95
4 | C#Cc1cccnn1 [3-Ethynylpyridazine] | lower nitrate-N concentrations | 91 | lower nitrate-N concentrations | 98 | significantly lower nitrate-N concentrations | 95 | more effective than DCD | 35.5 | 10.3 | 10.5 |  |  |  | 
5 | C#Cc1ccc[n+]([O-])c1 [3-ethynylpyridine 1-oxide] | lower nitrate-N concentrations | 43 | lower nitrate-N concentrations | 96 | significantly lower nitrate-N concentrations | 97 | more effective than DCD | 224.4 | 20.8 | 8.2 | greater than that by DCD | 3.6 | 0.79 | 100
6 | C#Cc1ccncn1 [4-Ethynylpyrimidine] |  |  | lower nitrate-N concentrations |  | significantly lower nitrate-N concentrations |  | more effective than DCD |  |  |  |  |  |  | 100
7 | C#Cc1ccc(O)cc1 [4-ethynylphenol, reference compound] |  |  |  |  |  |  |  |  |  |  |  |  |  | 0
8 | C#CC1CCNCC1 [4-ethynylpiperidine hydrochloride, reference compound] |  |  |  |  |  |  |  |  |  |  |  |  |  | 0
9 | C#Cc1cc[n+](O)cc1 [4-ethynylpyridine 1-oxide, reference compound] |  |  |  |  |  |  |  |  |  |  |  |  |  | 18
10 | C#Cc1c[nH]c(=O)[nH]c1=O [5-ethynyl-2,4(1H,3H)-pyrimidinedione, reference compound] |  |  |  |  |  |  |  |  |  |  |  |  |  | 0
11 | C#Cc1ccc(OC)nc1 [5-ethynyl-2-methoxypyridine] |  |  |  |  | lower nitrate-N concentrations |  |  |  |  |  |  |  |  | 100
